Measured values taken from patent US10471046B2, “Method for treating, preventing, or reducing the risk of skin infection” (Melinta Subsidiary Corp., priority 2014, dated 2019).
In brackets after ≈: the same amount, converted by molar mass.

Tested on: S. aureus
Assay: Minimum inhibitory concentrations (MICs) for S. aureus of exemplary compounds (Table 2)
Format: cell-based
Details: Staphylococcus aureus, minimum inhibitory concentrations for S. aureus; read-out: MICs
Method in brief: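 MICs (μg/mL) against S. aureus come from microtiter-tray dilution susceptibility testing per NCCLS M7-A5, comparing growth with and without compound.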

SMILES	MIC
CC(=O)NC[C@H]1CN(c2ccc(-c3ccc(CNNC(=O)c4cccnc4)cc3)c(F)c2)C(=O)O1 [Compound 4237, N-(3-{2-Fluoro-4′-[N′-(pyridine-3-carbonyl)-hydrazinomethyl]-biphenyl-4-yl}-2-oxo-oxazolidin-5-(S)-ylmethyl)-acetamide]	0.25 µg/mL (≈ 0.524 µM)
O=C1O[C@@H](Cn2ccnn2)CN1c1ccc(-c2ccc(Cn3ccnc3)cc2)c(F)c1 [Compound 1084, 3-(2-Fluoro-4′-imidazol-1-ylmethyl-biphenyl-4-yl)-5-(R)-[1,2,3]triazol-1-ylmethyl-oxazolidin-2-one]	0.25 µg/mL (≈ 0.597 µM)
CC(=O)NC[C@H]1CN(c2ccc(-c3ccc([C@H](O)CN(CCC(F)(F)Cl)Cc4ccccc4)cc3)c(F)c2)C(=O)O1 [Compound 4249, N-[3-(4′-{2-[Benzyl-(3-chloro-3,3-difluoro-propyl)-amino]-1-(S)-hydroxy-ethyl}-2-fluoro-biphenyl-4-yl)-2-oxo-oxazolidin-5-(S)-ylmethyl]-acetamide]	8 µg/mL (≈ 13.6 µM)
NC[C@H]1CN(c2ccc(-c3ccc(Cn4cnnn4)cc3)c(F)c2)C(=O)O1 [Compound 1032, 5-(S)-Aminomethyl-3-(2-fluoro-4′-tetrazol-1-ylmethyl-biphenyl-4-yl)-oxazolidin-2-one]	32 µg/mL (≈ 86.9 µM)
CC(=O)NC[C@H]1CN(c2ccc(-c3ccc(CNNc4ccccn4)cc3)c(F)c2)C(=O)O1 [Compound 2048, N-{3-[2-Fluoro-4′-(N′-pyridin-2-yl-hydrazinomethyl)-biphenyl-4-yl]-2-oxo-oxazolidin-5-(S)-ylmethyl}-acetamide]	0.5 µg/mL (≈ 1.11 µM)
CC(=O)NC[C@H]1CN(c2ccc(-c3ccc(CNC(=O)[C@H](N)Cc4c[nH]c5ccccc45)cc3)c(F)c2)C(=O)O1 [Compound 4307, N-{4′-[5-(S)-(Acetylamino-methyl)-2-oxo-oxazolidin-3-yl]-2′-fluoro-biphenyl-4-ylmethyl}-2-(R)-amino-3-(1H-indol-3-yl)-propionamide]	2 µg/mL (≈ 3.68 µM)
CC(=O)NC[C@H]1CN(c2ccc(-c3ccc(CNC(=O)c4ccc(F)cc4)cc3)c(F)c2)C(=O)O1 [Compound 4013, N-{4′-[5-(S)-(Acetylamino-methyl)-2-oxo-oxazolidin-3-yl]-2′-fluoro-biphenyl-4-ylmethyl}-4-fluoro-benzamide]	8 µg/mL (≈ 16.7 µM)
CC(=O)NC[C@H]1CN(c2ccc(-c3ccc(CS(=O)(=O)Nc4cccnc4)cc3)c(F)c2)C(=O)O1 [Compound 2045, N-{3-[2-Fluoro-4′-(pyridin-3-ylsulfamoylmethyl)-biphenyl-4-yl]-2-oxo-oxazolidin-5-(S)-ylmethyl}-acetamide]	2 µg/mL (≈ 4.01 µM)
CC(=O)NC[C@H]1CN(c2ccc(-c3ccc(Cn4cnc5c(NCCO)ncnc54)cc3)c(F)c2)C(=O)O1 [Compound 1099, N-(3-{2-Fluoro-4′-[6-(2-hydroxy-ethylamino)-purin-9-ylmethyl]-biphenyl-4-yl}-2-oxo-oxazolidin-5-(S)-ylmethyl)-acetamide]	2 µg/mL (≈ 3.85 µM)
CC(=O)NC[C@H]1CN(c2ccc(-c3ccc(CNCCSc4ncccn4)cc3)c(F)c2)C(=O)O1 [Compound 5009, N-[3-(2-Fluoro-4′-{[2-(pyrimidin-2-ylsulfanyl)-ethylamino]-methyl}-biphenyl-4-yl)-2-oxo-oxazolidin-5-(S)-ylmethyl]-acetamide]	1 µg/mL (≈ 2.02 µM)
CC(=O)NC[C@H]1CC(c2ccc(-c3ccc(CNC(=O)c4ccccc4C(=O)O)cc3)cc2)=NO1 [Compound 4106, N-{4′-[5-(R)-(Acetylamino-methyl)-4,5-dihydro-isoxazol-3-yl]-biphenyl-4-ylmethyl}-phthalamic acid]	128 µg/mL (≈ 271 µM)
CC(=O)NC[C@H]1CN(c2ccc(-c3ccc(Cn4ccnc4)c(F)c3)c(F)c2)C(=O)O1 [Compound 1010, N-[3-(2,3′-Difluoro-4′-imidazol-1-ylmethyl-biphenyl-4-yl)-2-oxo-oxazolidin-5-(S)-ylmethyl]-acetamide]	1 µg/mL (≈ 2.35 µM)
CC(=O)NC[C@H]1CN(c2ccc(-c3ccc(/C=N/Nc4ccccn4)cc3)c(F)c2)C(=O)O1 [Compound 2041, N-{3-[2-Fluoro-4′-(pyridin-2-yl-hydrazonomethyl)-biphenyl-4-yl]-2-oxo-oxazolidin-5-(S)-ylmethyl}-acetamide]	1 µg/mL (≈ 2.23 µM)

Results, then the compound that gave them:

MIC	SMILES
2 µg/mL (≈ 4.58 µM)	CC(=O)NC[C@H]1CN(c2ccc(-c3ccc(CNCc4ccc[nH]4)cc3)c(F)c2)C(=O)O1 [Compound 4048, N-[3-(2-Fluoro-4′-{[(1H-pyrrol-2-ylmethyl)-amino]-methyl}-biphenyl-4-yl)-2-oxo-oxazolidin-5-(S)-ylmethyl]-acetamide]
1 µg/mL (≈ 2.36 µM)	CC(=O)NC[C@H]1CN(c2ccc(-c3ccc(Cc4noc(C)n4)cc3)c(F)c2)C(=O)O1 [Compound 1017, N-{3-[2-Fluoro-4′-(5-(S)-methyl-[1,2,4]oxadiazol-3-ylmethyl)-biphenyl-4-yl]-2-oxo-oxazolidin-5-(S)-ylmethyl}-acetamide]
1 µg/mL (≈ 2.15 µM)	CC(=O)NC[C@H]1CN(c2ccc(-c3ccc(C(=O)NCCc4cnc[nH]4)cc3)c(F)c2)C(=O)O1 [Compound 4116, 4′-[5-(S)-(Acetylamino-methyl)-2-oxo-oxazolidin-3-yl]-2′-fluoro-biphenyl-4-carboxylic acid [2-(3H-imidazol-4-yl)-ethyl]-amide]
16 µg/mL (≈ 32.6 µM)	CC(=O)NC[C@H]1CN(c2ccc(-c3ccc([C@@H](NCc4ccccn4)C(N)=O)cc3)c(F)c2)C(=O)O1 [Compound 4185]
0.5 µg/mL (≈ 1.03 µM)	CC(=O)NC[C@H]1CN(c2ccc(-c3ccc([C@H](CO)N4CCN(C=O)CC4)cc3)c(F)c2)C(=O)O1 [Compound 1045, N-(3-{2-Fluoro-4′-[1-(R)-(4-formyl-piperazin-1-yl)-2-hydroxy-ethyl]-biphenyl-4-yl}-2-oxo-oxazolidin-5-(S)-ylmethyl)-acetamide]
1 µg/mL (≈ 2.22 µM)	CC(=O)NC[C@H]1CN(c2ccc(-c3ccc(COCc4ccccn4)cc3)c(F)c2)C(=O)O1 [Compound 4192, N-{3-[2-Fluoro-4′-(pyridin-2-ylmethoxymethyl)-biphenyl-4-yl]-2-oxo-oxazolidin-5-(S)-ylmethyl}-acetamide]
2 µg/mL (≈ 4.41 µM)	CC(=O)NC[C@H]1CN(c2ccc(-c3ccc(CNCc4noc(C)n4)cc3)c(F)c2)C(=O)O1 [Compound 4141, N-[3-(2-Fluoro-4′-{[(5-methyl-[1,2,4]oxadiazol-3-ylmethyl)-amino]-methyl}-biphenyl-4-yl)-2-oxo-oxazolidin-5-(S)-ylmethyl]-acetamide]
2 µg/mL (≈ 4.43 µM)	CC(=O)NC[C@H]1CN(c2ccc(-c3ccc(CNCc4ccc(C)o4)cc3)c(F)c2)C(=O)O1 [Compound 4081, N-[3-(2-Fluoro-4′-{[(5-methyl-furan-2-ylmethyl)-amino]-methyl}-biphenyl-4-yl)-2-oxo-oxazolidin-5-(S)-ylmethyl]-acetamide]
0.5 µg/mL (≈ 1.18 µM)	CC(=O)NC[C@H]1CN(c2ccc(-c3ccc(Cn4nnnc4N)cc3)c(F)c2)C(=O)O1 [Compound 1025, N-{3-[4′-(5-Amino-tetrazol-1-ylmethyl)-2-fluoro-biphenyl-4-yl]-2-oxo-oxazolidin-5-(S)-ylmethyl}-acetamide]

Same assay, conditions: Staphylococcus aureus, read-out: MICs

SMILES	MIC
CC(=O)NC[C@H]1CN(c2ccc(-c3ccc(Cc4nc(=O)o[nH]4)cc3)c(F)c2)C(=O)O1 [Compound 1016, N-{3-[2-Fluoro-4′-(5-(S)-oxo-2,5-(S)-dihydro-[1,2,4]oxadiazol-3-ylmethyl)-biphenyl-4-yl]-2-oxo-oxazolidin-5-(S)-ylmethyl}-acetamide]	4 µg/mL (≈ 9.38 µM)
